Measured values from US20230013402A1, “REGENERATING FUNCTIONS AND PHENOTYPES OF CONNECTIVE TISSUE THROUGH NPAS2 SUPPRESSION” (The Regents of the University of California, priority 2019, published 2023).
Entries after “also recorded” stand apart in the source; their conditions may differ.

How the values were obtained:
[1] = tested on: murine dermal fibroblasts; assay: Collagen synthesis by picrosirius red staining; format: cell-based, mouse; conditions: day 7; 1 μM or 10 μM; vs control and 50 μg AA
Experimental: The effects of two different concentrations of Dwn1 (1 μM or 10 μM) on collagen synthesis in murine dermal fibroblast in vitro were examined Murine dermal fibroblasts were seeded into 24-well plates and cultured at 80%-90% confluency in medium supplemented with ascorbic acid (50 μg/mL) for 1, 3, and 7 days. The cells were then fixed with 10% neutral buffered formalin and stained with Picrosirius red (PolyScience, Niles, Ill.) for visualizing the collagen. AA: 1-ascorbic acid. OD: optical density. CTRL: cell treated with control medium without AA. […] (FIG. 35A) The absorption value was read in a spectrophotometer at 550 nm with a plate reader ([…] H1 plate reader) and compared by one-way ANOVA with the post hoc Holm test.

[2] = tested on: ligature-induced periodontitis; assay: Modified mouse ligature-induced periodontitis model (ligature removed at Day 14, evaluation at D28); format: in vivo; conditions: topical to palatal gingiva once a week, listed as Dwn1
Excerpt: FIGS. 12A-12H show the effect of Dwn1 in the modified ligature-induced periodontitis in mice.
The selected highest hit compound Dwn1 (Reserpine) of Example 2 was applied to the well established ligature-induced periodontitis model with modification. After periodontitis was established at Day 14, the ligature was revoved from mouse molar mimicking non-invasive periodontits treatment: scaling and root planing (SRP) (FIGS. 12A-12D). Dwn1 was formulated in ABR LLC's propritery trans-epithelial deformable nano-scale vesicle (DNV) (57) and topically adminstered to the palatal gingival tissue once a week (FIG. 12E). […] The in vivo regenerative efficacy of Dwn1 (Reserpine) was strongly indicated.
From FDA Approved Drug Library (1120 compounds) and LOPAC Library (1280 compounds), a list of chemical compounds that modulated Npas2-LacZ expression was identified. […] Dwn1 was formulated for topical application to palatal gingiva. After 14 days of periodontitis induction, the ligature was removed and Dwn1 was topically applied to the palatal gingiva once a week (FIG. 16A).

[3] = tested on: Npas2-LacZ reporter gene (Npas2 expression); assay: High throughput screening of FDA Approved Drug Library for Npas2-LacZ reporter expression; format: cell-based, mouse; conditions: Table 1
Excerpt: (§1) Mouse MSC carrying Npas2-LacZ reporter gene, as described by Hassan N, et al., PLoS One. 2017; 12(8):e0183359, which is incorporated by reference herein in its entirety, was immortalized using SV40 in order to accommodate a large-scale HTS. […] This cell system was used to screen FDA Approved Drug Library (1120 compounds). The same library was also screened for cell viability by Calcein AM Hoechst 33342 staining Cell migration assays using the Oris™ Pro Cell Migration Assay plate, as described by Joy M E et al., PloS one. 2014; 9(2):e88350, which is incorporated by reference herein in its entirety, was used for a high-throughput migration assay using human skin fibroblasts
(§2) The combined Z score was used to identify hit compounds (Table 1).

skin split wound = assay: Skin split (linear) wound/scar model with suture; format: in vivo, mouse; conditions: Dwn1 in 10% DMSO with suture vs suture only and suture plus vehicle
Excerpt: To test in vivo wound healing using Dwn1, a 1.5 by 10 millimeter skin split model was created with a suture in the middle and three groups were designed. This model is similar to a clinical situation of a skin wound. When the skin was sutured only, visible wound healing was not effective. A suture and vehicle control with 10% DMSO, in the clinical observation, wound healing was visibly better than suture only. It is hypothesized that the moisture of vehicle may improve wound healing.
Masson trichrome staining was used to stain collagen deposition blue. Thick blue collagen deposition was found not only in granulation tissue but also in the peripheral wound. The histological staining for the vehicle control with 10% DMSO, was similar to control. Thick collagen deposition was observed.
Vertical wounds (10×1.5 mm) were made on both left and right sides of the back of a mouse with a double-bladed scalpel. One ligation was performed at the center of the wound with 5-0 nylon suture. (FIG. 33A) Visual Analogue Scale (VAS) was scored everyday postoperatively until postoperative day 7 using gross images of the wounds/scars (FIG. 33A), and postoperative gross images of the wounds/scars were measured with a ruler. […] (FIG. 33D) Scar Index was evaluated using HE stained slices. (FIG. 33E) The % area of fibrous tissue was evaluated using MT stained slices. […]

[4] = tested on: bone marrow stromal cells (BMSC); assay: In vitro mineralization / osteogenic differentiation of BMSC (MSC) in osteogenic medium; format: cell-based, mouse
Excerpt: FIGS. 7A-7B show the effect of Reserpine on bone marrow stromal cells osteogenic differentiation. […] Bars: Tukey analysis with p<0.05. […] The expression values were normalized with day 0 RNA.
FIGS. 11A-11D(b) show results of in vitro biological assays of Npas2 suppressing compound Dwn1 (Reserpine).
Reserpine was selected and its effect on bone marrow stromal cells (BMSC) was characterized for osteogenic differentiation.
To evaluate the mechanism of action involving Npas2, Reserpine was applied to WT, Npas2+/− and Npas2−/− mouse BMSC and evaluated for in vitro osteogenic differentiation.
The small molecule compound that scored the best combined z score in Example 2, Dwn1 (Reserpine) was selected for in vitro biological assays. […] BMP-2 has been used as a gold standard for accelerated osteogenic differentiation of MSC (48, 49). […] The expression of core clock gene Bmal1 was not affected by Dwn1 (FIG. 11C). Dwn1 increased in vitro mineralization of Npas2+/− MSC, but not of Npas2−/− MSC (FIG. 11D), implying that the effect of Dwn1 (Reserpine) was facilitated primarily by Npas2 suppression.

Npas2-LacZ expression = assay: Titration assay: effective concentration by LacZ expression in MSC Npas2-LacZ; format: cell-based, mouse; conditions: serial dilution 100 μM to 0.2 nM
Experimental: Dwn1 was serially diluted from 100 μM to 0.2 nM and applied to MSC Npas2-LacZ. Effective concentration (EC) was determined by LacZ expression and inhibitory concentration (IC) was determined by cell viability using Calcein AM/Hoechst 33342 staining DwnC and Dwn1 are both Reserpine.
Dwn1 was identical to the previously identified DwnC compound from the LOPAC library. Dwn1 compound (Reserpine) was selected for serial dilution analysis. […] Dwn1 was used for preliminary in vitro and in vivo studies described below. Additional compounds suppressing Npas2 were identified (Table 2).
Dwn1 was serially diluted from 100 μM to 0.2 nM and applied to MSC Npas2-LacZ. EC was determined by LacZ expression and IC was determined by cell viability using Calcein AM/Hoechst 33342 staining.

human skin fibroblasts = assay: High-throughput cell migration assay (Oris Pro Cell Migration Assay plate) / standardized viability; format: cell-based; conditions: Table 1; HTS of FDA Drug Library
Excerpt: as §1, §2

Question: `COC(=O)[C@H]1[C@H]2C[C@@H]3c4[nH]c5cc(OC)ccc5c4CCN3C[C@H]2C[C@@H](OC(=O)c2cc(OC)c(OC)c(OC)c2)[C@@H]1OC` [Reserpine] was tested. Which “Picrosirius red staining (collagen fiber formation and accumulation)” value [1] did it give?
Answer: increase of a positive reaction

Question: And the “Gingival epithelium / gingival defect” value [2]?
Answer: normalized gingival epithelium; also recorded: less visible

Question: And the “Alveolar bone regeneration (microCT bone height)” value ([2]; palatal side)?
Answer: increased bone height; also recorded: Alveolar bone regeneration was demonstrated; also recorded: alveolar bone loss was attenuated; also recorded: significant alveolar bone regeneration

Question: What about the “Gingival/periodontal collagen with Sharpey's fibers” value ([2]; picrosirius red) of the same compound?
Answer: gingival/PDL connective tissue reconstruction; also recorded: appeared to be reconstructed; also recorded: normalized Sirius red stained gingival collagen arrangement; also recorded: collagen fibers were reorganized

Question: And the “NPAS2 Z Score” value ([3]; HTS of FDA Drug Library)?
Answer: −2.57

Question: What about the “NPAS Z × ViabilityZ” value ([3]; combined Z score (product)) of the same compound?
Answer: −10.77

Question: And the “Collagen deposition (Masson trichrome staining)” value (skin split wound)?
Answer: decreased excessive collage deposition; also recorded: very small area of collagen deposition

Question: And the “Split wound healing / scarring” value (skin split wound)?
Answer: improved split wound healing with minimal scarring; also recorded: best wound healing

Question: And the “In vitro mineralization compared with BMP-2 supplementation” value ([4]; Dwn1 1 μM vs BMP-2 100 ng/ml)?
Answer: equivalent to BMP-2 (100 ng/ml) supplementation

Question: And the “In vitro mineralization / osteogenic differentiation” value ([4]; Npas2+/− BMSC/MSC)?
Answer: reproducibly observed

Question: And the “In vitro mineralization / osteogenic differentiation” value ([4]; Npas2+/− BMSC/MSC, listed as Dwn1)?
Answer: responded; also recorded: increased

Question: What about the “In vitro mineralization / osteogenic differentiation” value ([4]; Npas2−/− BMSC/MSC) of the same compound?
Answer: did not modulate

Question: And the “In vitro mineralization / osteogenic differentiation” value ([4]; wild type BMSC/MSC, osteogenic medium, alizarin red)?
Answer: increased alizarin red positive in vitro mineralization; also recorded: dose-dependently accelerated in vitro mineralization; also recorded: reproducibly observed

Question: And the “In vitro mineralization / osteogenic differentiation” value ([4]; wild type BMSC/MSC, osteogenic medium, alizarin red, listed as Dwn1)?
Answer: increased dose-dependently; also recorded: dose dependently increased; also recorded: dose-dependently increased

Question: What about the “Effective concentration (EC)” value (Npas2-LacZ expression) of the same compound?
Answer: 0.5 to 10 µM

Question: What about the “Migration (standardized viability) Z Score” value (human skin fibroblasts) of the same compound?
Answer: 4.19
